Measurements as given in patent US11465965B2, “Double-headed protease inhibitor” (UBE INDUSTRIES, LTD., priority 2017, dated 2022).
Counter-ions that a name gives are not always drawn. Like-named read-outs stand apart in the source and are kept apart here.

Assays:
in vivo = conditions: male, SD, rat, po, 10 mg/kg
Description: (§1) Each test compound was suspended in a 0.5 W/V % methylcellulose 400 solution to prepare a suspension, and the resulting suspension was orally administered to a male SD rat of 7 to 8-week old (weight: 180 to 250 g). After 0.25, 0.5, 1, 2, 4, 8, and 24 hour(s) of the administration of each test compound, blood (EDTA-added blood) was collected from jugular vein under isoflurane inhalation anesthesia. […] To the resulting blood plasma was added acetonitrile, a mixed solvent of acetonitrile and water (1:1 (V/V)), or a mixed solvent of acetonitrile and 0.1 M hydrochloric acid (1:1 (V/V)), then the resulting mixture was mixed at 750 rpm for 3 minutes in a shaker, and subjected to centrifugal separation at 3700 rpm for 2 minutes in a centrifuge to remove proteins. The resulting sample was subjected to LC (liquid chromatography)/MS (mass spectrometry) measurement under the following measurement conditions.
(§2) Each compound concentration in blood plasma at each time of blood collection was calculated according to the internal standard method, and, area under the plasma concentration vs. time curve (AUCall (Area Under Curve)) was calculated according to the trapezoidal method.
(§3) The LC and MS systems used in the present test are as follows.
(§4) LC: LC20 or LC30 HPLC system manufactured by Shimadzu Corporation
(§5) Column: Phenomenex Kinetex C18 (50×2.1 mm, 2.6 μm)
Column temperature: 40° C.
(§6) Mobile phase A: aqueous solution with 0.1% formic acid, Mobile phase B: 50% acetonitrile/methanol solution with 0.1% formic acid

[1] = biological target: T1, Human recombinant trypsin (Homo sapiens, UniProt P07477); assay: Human trypsin inhibition test; format: biochemical; conditions: 20 minutes after reaction start, read-out: Inhibition rate (trypsin); for inhibition at 0.01 µM: compound concentration 10 nM; for inhibition at 0.1 µM: compound concentration 100 nM; for inhibition at 0.001 µM: compound concentration 1 nM
T1 construct: purchased Wako Pure Chemical Industries, Ltd. 206-17171
In short: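 Trypsin diluted to 10 ng/mL in 0.1 M Tris-HCl pH8.0, 0.15 M NaCl, 10 mM CaCl2, 0.05% Brij35; substrate solution 40 μM Boc-Phe-Ser-Arg-MCA, compounds in 1% DMSO buffer. Fluorescence (ex 355/em 460 nm) read 20 min after enzyme addition; % inhibition versus no-compound and no-enzyme controls.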

[2] = biological target: T2, Human recombinant enteropeptidase (Homo sapiens, UniProt P98073); assay: Human enteropeptidase inhibition test; format: biochemical; conditions: read-out: Inhibition rate (enteropeptidase); for inhibition at 0.001 µM: compound concentration 1 nM
T2 construct: purchased BIO Vision Inc. 7529-50
In short: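 Recombinant human enteropeptidase in 50 mM tricine pH 8.0, 0.01% Tween 20, 10 mM CaCl2 cleaving 1.5 μM 5FAM/CPQ2-quenched peptide substrate (stock solution concentration). Fluorescence (ex 485/em 535 nm) read 20 min after enzyme addition; % inhibition versus no-compound and no-enzyme controls.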

DIO mouse = assay: Anti-obesity effect test using DIO mouse; format: in vivo; conditions: 336 h, DIO mice, vs vehicle group, read-out: Weight loss rate; for inhibition in vivo at 50 mg/kg: oral 50 mg/kg once daily for 2 weeks
In short: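 Male C57BL-DIO mice on D-12492 diet, 26 to 28-week old, 5 or 6 per group; compound dosed orally once daily for 2 weeks as 0.5 W/V % methylcellulose suspension, vehicle group on suspension alone. Weight loss rate (%) = (1 − mean final-day weight of treated group / mean final-day weight of vehicle group) × 100.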

[3] = Rat pharmacokinetic (PK) test (plasma concentration after oral administration); conditions: male, SD
Description: as §1, §2, §3, §4, §5
Column temperature: 40° C.
as §6

HFD-fed mouse = assay: Fecal protein concentration-increasing test by single administration using HFD-fed mouse; format: in vivo; conditions: 24 h, HFD-fed mice, vs vehicle group, read-out: Ratio for an increase of protein concentration in feces; for response vs control in vivo at 50 mg/kg: single oral dose 50 mg/kg
Text: (Test Example 3): Fecal Protein Concentration-Increasing Test by Single Administration Using HFD-Fed Mouse
High fat diet-fed (HFD-fed) mice (D-12492 diet, male, ICR, 6 week old) were orally administered with a 0.5 W/V % methylcellulose suspension comprising each test compound (Compound administration group, 4 or 5 mice/group) or a 0.5 W/V % methylcellulose suspension (Compound non-administration group (Vehicle group), 5, 6, or 7 mice/group), and whole feces of the day were collected. Dried feces were dissolved into a 0.5N aqueous sodium hydroxide solution, followed by centrifugation at 3500 rpm. Then each protein concentration in the resulting supernatant was determined (Lowry method), and the ratio for an increase of protein concentration in feces was calculated by the following equation using the protein concentration in feces contained in 1 g of feces (mg/g feces). Ratio for an increase of protein concentration in feces−(average protein concentration in feces of Compound administration group)[…](average protein concentration in feces of Compound non-administration group)

[4] = compound concentration 10 nM, 20 minutes after reaction start
[5] = compound concentration 100 nM, 20 minutes after reaction start
[6] = 20 minutes after reaction start

T2 sequence (P98073 whole entry): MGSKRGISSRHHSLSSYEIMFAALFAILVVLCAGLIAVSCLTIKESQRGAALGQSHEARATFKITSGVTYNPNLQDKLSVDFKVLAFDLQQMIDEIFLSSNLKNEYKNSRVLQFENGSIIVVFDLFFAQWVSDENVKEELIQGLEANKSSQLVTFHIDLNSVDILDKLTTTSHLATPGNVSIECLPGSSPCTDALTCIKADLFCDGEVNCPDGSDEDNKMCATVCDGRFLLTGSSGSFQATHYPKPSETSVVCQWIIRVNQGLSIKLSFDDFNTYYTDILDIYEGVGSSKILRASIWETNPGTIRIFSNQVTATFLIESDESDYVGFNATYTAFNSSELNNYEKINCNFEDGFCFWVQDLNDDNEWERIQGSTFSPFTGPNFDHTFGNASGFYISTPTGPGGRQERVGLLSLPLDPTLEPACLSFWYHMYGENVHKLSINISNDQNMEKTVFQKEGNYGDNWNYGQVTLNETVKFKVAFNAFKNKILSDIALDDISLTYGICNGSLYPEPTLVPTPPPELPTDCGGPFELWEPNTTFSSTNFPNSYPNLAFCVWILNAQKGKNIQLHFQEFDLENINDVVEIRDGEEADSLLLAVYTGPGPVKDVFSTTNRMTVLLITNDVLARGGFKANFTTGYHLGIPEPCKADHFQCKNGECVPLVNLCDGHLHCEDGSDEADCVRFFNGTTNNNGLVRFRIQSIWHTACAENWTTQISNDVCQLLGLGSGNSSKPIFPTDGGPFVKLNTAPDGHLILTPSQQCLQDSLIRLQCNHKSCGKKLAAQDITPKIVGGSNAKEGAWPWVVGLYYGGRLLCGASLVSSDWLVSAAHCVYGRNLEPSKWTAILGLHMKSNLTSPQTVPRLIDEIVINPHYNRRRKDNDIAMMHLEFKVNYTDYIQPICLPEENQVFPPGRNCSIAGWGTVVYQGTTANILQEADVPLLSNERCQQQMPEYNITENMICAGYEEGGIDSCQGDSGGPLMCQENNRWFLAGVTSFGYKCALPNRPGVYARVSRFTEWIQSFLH

| inhibition at 0.01 µM [1] | inhibition at 0.1 µM [1] | inhibition at 0.01 µM [2, 4] | inhibition at 0.1 µM [2, 5] | AUC ([3]; 10 mg/kg) | inhibition at 0.001 µM [1] | inhibition at 0.001 µM [2, 6] | SMILES | inhibition in vivo at 50 mg/kg (DIO mouse) | response vs control in vivo at 50 mg/kg (HFD-fed mouse) | also measured |
| --- | --- | --- | --- | --- | --- | --- | --- | --- | --- | --- |
| ≥ 50% | ≥ 50% | ≥ 50% | ≥ 50% | ≤ 100 ng·h/mL | – | – | N=C(N)Nc1ccc(C(=O)Oc2ccc(CNS(=O)(=O)N(CCOCCOCCOCCOCCN([C@@H](CC(=O)O)C(=O)O)S(=O)(=O)NCc3ccc(OC(=O)c4ccc(NC(=N)N)cc4)cc3)[C@@H](CC(=O)O)C(=O)O)cc2)cc1 [4-(b), (2S,19S)-3,18-bis(N-(4-((4-guanidinobenzoyl)oxy)benzyl)sulfamoyl)-6,9,12,15-tetraoxa-3,18-diazaicosane-1,2,19,20-tetracarboxylic acid trifluoroacetate] | – | – | inhibition in vivo at 86 mg/kg (DIO mouse; oral 86 mg/kg once daily for 2 weeks): ≥ 4%; response vs control in vivo at 100 mg/kg (HFD-fed mouse; single oral dose 100 mg/kg): ≥ 130% |
| ≥ 50% | ≥ 50% | ≥ 50% | ≥ 50% | – | ≥ 50% | ≥ 50% | N=C(N)Nc1ccc(C(=O)Oc2ccc(CNS(=O)(=O)N(CCOCCN([C@@H](CC(=O)O)C(=O)O)S(=O)(=O)NCc3ccc(OC(=O)c4ccc(NC(=N)N)cc4)cc3)[C@@H](CC(=O)O)C(=O)O)cc2)cc1 [1-(b), (2S,2′S)-2,2′-((oxybis(ethane-2,1-diyl))bis((N-(4-((4-guanidinobenzoyl)oxy)benzyl)sulfamoyl)azanediyl))disuccinic acid] | – | – | inhibition in vivo at 30 mg/kg (DIO mouse; oral 30 mg/kg once daily for 2 weeks): ≥ 4%; AUC ([3]; 100 mg/kg): ≤ 100 ng·h/mL; response vs control in vivo at 87 mg/kg (HFD-fed mouse; single oral dose 87 mg/kg): ≥ 130% |
| ≥ 50% | ≥ 50% | ≥ 50% | ≥ 50% | ≤ 100 ng·h/mL | ≥ 50% | ≥ 50% | N=C(N)Nc1ccc(C(=O)Oc2ccc(CNS(=O)(=O)N(CCCN([C@@H](CC(=O)O)C(=O)O)S(=O)(=O)NCc3ccc(OC(=O)c4ccc(NC(=N)N)cc4)cc3)[C@@H](CC(=O)O)C(=O)O)cc2)cc1 [7-(b), (2S,2′)-2,2′-propane-1,3-diylbis((N-(4-((4-guanidinobenzoyl)oxy)benzyl)sulfamoyl)azanediyl)disuccinic acid] | – | – | inhibition in vivo at 100 mg/kg (DIO mouse; oral 100 mg/kg once daily for 2 weeks): ≥ 4%; response vs control in vivo at 30 mg/kg (HFD-fed mouse; single oral dose 30 mg/kg): ≥ 130% |
| ≥ 50% | ≥ 50% | ≥ 50% | ≥ 50% | – | – | – | N=C(N)Nc1ccc(C(=O)Oc2ccc(COC(=O)N(CCOCCOCCOCCOCCN(C(=O)OCc3ccc(OC(=O)c4ccc(NC(=N)N)cc4)cc3)C(CC(=O)O)C(=O)O)C(CC(=O)O)C(=O)O)cc2)cc1 (stereo not shown) [10-(b), 3,18-bis(((4-((4-guanidinobenzoyl)oxy)benzyl)oxy)carbonyl)-6,9,12,15-tetraoxa-3,18-diazaicosane-1,2,19,20-tetracarboxylic acid trifluoroacetate] | – | – | inhibition in vivo at 87 mg/kg (DIO mouse; oral 87 mg/kg once daily for 2 weeks): ≥ 4%; AUC ([3]; 8 mg/kg): ≤ 100 ng·h/mL; response vs control in vivo at 79 mg/kg (HFD-fed mouse; single oral dose 79 mg/kg): ≥ 130% |

More lines, now with the values behind:

| SMILES | inhibition at 0.01 µM [1] | inhibition at 0.1 µM [1] | inhibition at 0.01 µM [2, 4] | inhibition at 0.1 µM [2, 5] | AUC ([3]; 10 mg/kg) | inhibition at 0.001 µM [1] | inhibition at 0.001 µM [2, 6] | inhibition in vivo at 50 mg/kg (DIO mouse) | response vs control in vivo at 50 mg/kg (HFD-fed mouse) | also measured |
| --- | --- | --- | --- | --- | --- | --- | --- | --- | --- | --- |
| Cl.N=C(N)Nc1ccc2c(c1)CCCOc1c(cccc1C(=O)N(CCOCCOCCN(C(=O)c1cccc3c1OCCCc1cc(NC(=N)N)ccc1C(=O)O3)[C@H](CC(=O)O)C(=O)O)[C@H](CC(=O)O)C(=O)O)OC2=O [21-(c), (2R,13R)-3,12-bis(10-guanidino-13-oxo-6,7,8,13-tetrahydrodibenzo[b,f][1,4]dioxecin-4-carbonyl)-6,9-dioxa-3,12-diazatetradecane-1,2,13,14-tetracarboxylic acid hydrochloride] | – | – | – | – | – | – | – | – | – | AUC (in vivo): ≤ 100 ng·h/mL |
| N=C(N)Nc1ccc2c(c1)CCCOc1c(cccc1C(=O)N(Cc1cccc(-c3cccc(CN(C(=O)c4cccc5c4OCCCc4cc(NC(=N)N)ccc4C(=O)O5)[C@@H](CC(=O)O)C(=O)O)c3)c1)[C@@H](CC(=O)O)C(=O)O)OC2=O [28-(c)] | ≥ 50% | ≥ 50% | ≥ 50% | ≥ 50% | ≤ 100 ng·h/mL | – | ≥ 50% | ≥ 4% | ≥ 130% | – |
| N=C(N)Nc1ccc(C(=O)Oc2ccc(COC(=O)N(Cc3cccc(C(=O)NCCOCCOCCOCCOCCNC(=O)c4cccc(CN(C(=O)OCc5ccc(OC(=O)c6ccc(NC(=N)N)cc6)cc5)[C@@H](CC(=O)O)C(=O)O)c4)c3)[C@@H](CC(=O)O)C(=O)O)cc2)cc1 [17-(b), (2S,2′S)-2,2′-(((5,8,11,14-tetraoxa-2,17-diazaoctadecane-1,18-dioyl)bis(3,1-phenylene))bis(methylene))bis((((4-((4-guanidinobenzoyloxy)benzyloxycarbonyl)azanediyl))disuccinic acid trifluoroacetate] | ≥ 50% | ≥ 50% | – | – | – | ≥ 50% | – | – | – | inhibition at 0.01 µM [2]: ≥ 50%; inhibition at 0.1 µM [2]: ≥ 50%; inhibition in vivo at 88 mg/kg (DIO mouse; oral 88 mg/kg once daily for 2 weeks): ≥ 4%; AUC ([3]; 9 mg/kg): ≤ 100 ng·h/mL; response vs control in vivo at 91 mg/kg (HFD-fed mouse; single oral dose 91 mg/kg): ≥ 130% |
| Cl.N=C(N)Nc1ccc2c(c1)CCCOc1c(cccc1C(=O)N(CCOCCOCCN(C(=O)c1cccc3c1OCCCc1cc(NC(=N)N)ccc1C(=O)O3)[C@@H](CC(=O)O)C(=O)O)[C@@H](CC(=O)O)C(=O)O)OC2=O [20-(c), (2S,13S)-3,12-bis(10-guanidino-13-oxo-6,7,8,13-tetrahydrodibenzo[b,f][1,4]dioxecin-4-carbonyl)-6,9-dioxa-3,12-diazatetradecane-1,2,13,14-tetracarboxylic acid hydrochloride] | – | – | – | – | – | – | – | – | – | AUC (in vivo): ≤ 100 ng·h/mL |
| N=C(N)Nc1ccc2c(c1)CCCOc1c(cccc1C(=O)N(CCOCCN(C(=O)c1cccc3c1OCCCc1cc(NC(=N)N)ccc1C(=O)O3)[C@@H](CC(=O)O)C(=O)O)[C@@H](CC(=O)O)C(=O)O)OC2=O [26-(b), (2S,2′S)-2,2′-((oxybis(ethane-2,1-diyl))bis((10-guanidino-13-oxo-6,7,8,13-tetrahydrodibenzo[b,f][1,4]dioxecin-4-carbonyl)azanediyl))disuccinic acid] | ≥ 50% | – | ≥ 50% | – | ≤ 100 ng·h/mL | ≥ 50% | ≥ 50% | ≥ 4% | ≥ 130% | – |
| Cl.N=C(N)Nc1ccc2c(c1)CCCOc1c(cccc1C(=O)N(Cc1cc(OCCOCCOc3cc(CN(C(=O)c4cccc5c4OCCCc4cc(NC(=N)N)ccc4C(=O)O5)[C@@H](CC(=O)O)C(=O)O)cc(C(=O)O)c3)cc(C(=O)O)c1)[C@@H](CC(=O)O)C(=O)O)OC2=O [29-(c), (2S,2′S)-2,2′-(((((oxybis(ethane-2,1-diyl))bis(oxy))bis(3-carboxy-5,1-phenylene))bis(methylene))bis((10-guanidino-13-oxo-6,7,8,13-tetrahydrodibenzo[b,f][1,4]dioxecin-4-carbonyl)azanediyl))disuccinic acid hydrochloride] | – | ≥ 50% | ≥ 50% | ≥ 50% | ≤ 100 ng·h/mL | – | ≥ 50% | ≥ 4% | ≥ 130% | – |
